Literature values, collected in patent publication US11752097B2, “N-acetylcysteine compositions and methods” (Endo Ventures Limited, priority 2020, dated 2023).
Like-named read-outs stand apart in the source and are kept apart here. Values belong to the molecule of their own block, whether it stands above or below them.

Key:
[1] = test system: acetaminophen-overdose-induced hepatotoxicity; conditions: in vivo
[2] = Co^2+
[3] = Mn^2+
[4] = Hg^2+
[5] = pH 7, RT; reaction with Superoxide anion (O2^•−)
[6] = pH 7.4, 37° C.; reaction with Nitroxyl (HNO)
[7] = Cu^2+
[8] = pH 7, 25° C.
[9] = not given; remark: listed apart in the source
[10] = Cd^2+
[11] = Cr^3+
[12] = pH 7, RT; reaction with Hydroxyl radical (^•OH)
[13] = not given; remark: listed apart in the source
[14] = pH 7.4, RT
[15] = pH 7.4, 25° C.
[16] = following intravenous administration
[17] = Fe^3+
[18] = Ni^2+
[19] = ambient light
[20] = Zn^2+
[21] = pH 7.4, 37° C.
[22] = not given; remark: listed apart in the source
[23] = ingestion of 10-15 g in a single dose
[24] = 25° C. and 0.12 mol · dm^−3 ionic strength (NaClO4)
[25] = 37° C. and 0.15 mol · dm^−3 ionic strength (NaCl)
[26] = 25° C. and 0.1 mol · dm^−3 ionic strength (KNO3)

Structure (SMILES): CC(=O)N[C@H](CS)C(=O)O (single isomer, unassigned) [D-isomer of acetylcysteine]
Activity of isomer (prevention of hepatotoxicity) [1]: not prevent hepatotoxicity
Activity of isomer (prevention of hepatotoxicity) ([1]; listed as D-isomer): inactive

Structure (SMILES): O=C(O)CN(CCN(CC(=O)O)CC(=O)O)CCN(CC(=O)O)CC(=O)O [DTPA, diethylenetriaminepentaacetic acid]
Complex formation constant (log K) ([2]; conditions not given): 18.40
Complex formation constant (log K) ([3]; conditions not given): 15.60
Complex formation constant (log K) ([4]; conditions not given): 27.00
Complex formation constant (log K) ([7]; conditions not given): 21.53
Complex formation constant (log K) ([10]; conditions not given): 19.31
Complex formation constant (log K) ([17]; conditions not given): 28.60
Complex formation constant (log K) ([18]; conditions not given): 20.32
Complex formation constant (log K) ([20]; conditions not given): 18.75

Structure (SMILES): CC(=O)Nc1ccc(O)cc1 [acetaminophen, Acetaminophen]
time to hepatic damage after overdose [23]: 2 to 5 days

Continued, in another order:

half-life (t1/2) (following an intravenous administration): 5.7 h
administered acetylcysteine excreted in the urine unchanged (in vivo): 20-30%
Complex formation constant (log K) [2, 24]: 4.18
Complex formation constant (log K) [2, 25]: 4.28
Complex formation constant (log K) [3, 25]: 3.64
Complex formation constant (log K) [4, 26]: 11.23
Complex formation constant (log K) [7, 26]: 9.02
Complex formation constant (log K) [7, 25]: 6.64
redox potential ([9]; relative to Glutathione (reduced GSH/oxidized GSSG) system as a reference standard): +63 mV
Complex formation constant (log K) [10, 26]: 7.25
Complex formation constant (log K) [11, 24]: 8.26
Solubility: volume of alcohol for 1 gram ([13]; 1 gram in alcohol): 4 mL
Solubility: volume of water for 1 gram ([13]; 1 gram in water): 5 mL
Solubility in chloroform ([13]; chloroform): insoluble
Solubility in ether ([13]; ether): insoluble
Complex formation constant (log K) [17, 24]: 10.58
Complex formation constant (log K) [18, 24]: 5.02
Complex formation constant (log K) [18, 25]: 4.86
Light stability [19]: stable in ambient light
Complex formation constant (log K) [20, 26]: 7.04
Complex formation constant (log K) [20, 25]: 6.23
Reaction with contact materials ([22]; glass, plastic, aluminum, anodized aluminum, chromed metal and stainless steel): does not react
Structure (SMILES): CC(=O)N[C@@H](CS)C(=O)O [Acetylcysteine, N-acetyl-L-cysteine]
Rate constant [5]: 68 ± 6 M⁻¹ s⁻¹
Rate constant [6]: 500000 M⁻¹ s⁻¹
Activity of isomer (prevention of hepatotoxicity) [1]: active
Rate constant [8]: (1.36 ± 0.2) × 10^4 M^−1 s^−1
Rate constant [12]: 1.36e+10 M⁻¹ s⁻¹
Rate constant [14]: ~1e+07 M⁻¹ s⁻¹
Rate constant [15]: 0.85 ± 0.09 M⁻¹ s⁻¹
Potential adverse reactions [16]: acute flushing and erythema of the skin, and anaphylactoid reactions
Rate constant [21]: 415 ± 10 M⁻¹ s⁻¹
Rate constant ([21]; reaction with Peroxynitrite): 415 ± 10 M⁻¹ s⁻¹
Reaction of solutions with contact materials ([22]; contact with rubber, some metals (particularly iron and copper surfaces), and/or autoclaving): discoloration and hydrogen sulfide generation

Complex formation constant (log K) ([2]; conditions not given): 16.31
Complex formation constant (log K) ([3]; conditions not given): 14.04
Complex formation constant (log K) ([4]; conditions not given): 21.80
Complex formation constant (log K) ([7]; conditions not given): 18.80
Complex formation constant (log K) ([10]; conditions not given): 16.46
Complex formation constant (log K) ([11]; conditions not given): 23.40
Complex formation constant (log K) ([17]; conditions not given): 25.10
Complex formation constant (log K) ([18]; conditions not given): 18.62
Complex formation constant (log K) ([20]; conditions not given): 16.50
Structure (SMILES): O=C(O)CN(CCN(CC(=O)O)CC(=O)O)CC(=O)O [EDTA, Ethylenediaminetetraacetic acid]

experimental redox potential ([9]; in the cytosol): −289 mV
Structure (SMILES): N[C@@H](CCC(=O)N[C@@H](CS)C(=O)NCC(=O)O)C(=O)O [Glutathione]
